B1: P043 CelH: Clostridium thermocellum CelH enzyme (gene Cthe_1472) represented by SEQ ID NO:12 (protein, listed as Clostridium thermocellum)
chain: IKSFQELQGRKLDIVHQFINWSTDFSWVRPYADAVYNNGSILMITWEPWEYNTVDIKNGKADAYITRMAQDMKAYGKEIWLRPLHEANGDWYPWAIGYSSRVNTNETYIAAFRHIVDIFRANGATNVKWVFNVNCDNVGNGTSYLGHYPGDNYVDYTSIDGYNWGTTQSWGSQWQSFDQVFSRAYQALASINKPIIIAEFASAEIGGNKARWITEAYNSIRTSYNKVIAAVWFHENKETDWRINSSPEALAAYREAIGAGSSNPTPTPTWTSTPPSSSPKAVDPFEMVRKMGMGTNLGNTLEAPYEGSWSKSAMEYYFDDFKAAGYKNVRIPVRWDNHTMRTYPYTIDKAFLDRVEQVVDWSLSRGFVTIINSHHDDWIKEDYNGNIERFEKIWEQIAERFKNKSENLLFEIMNEPFGNITDEQIDDMNSRILKIIRKTNPTRIVIIGGGYWNSYNTLVNIKIPDDPYLIGTFHYYDPYEFTHKWRGTWGTQEDMDTVVRVFDFVKSWSDRNNIPVYFGEFAVMAYADRTSRVKWYDFISDAALERGFACSVWDNGVFGSLDNDMAIYNRDTRTFDTEILNALFNPGTYPSYSPKPSPTPRPTKPPVTPAVGEKMLDDFEGVLNWGSYSGEGAKVSTKIVSGKTGNGMEVSYTGTTDGYWGTVYSLPDGDWSKWLKISFDIKSVDGSANEIRFMIAEKSINGVGDGEHWVYSITPDSSWKTIEIPFSSFRRRLDYQPPGQDMSGTLDLDNIDSIHFMYANNKSGKFVVDNIKLIGATSDPTPSIKHGDLNFDNAVNSTDLLMLKRYILKSLELGTSEQEEKFKKAADLNRDNKVDSTDLTILKRYLLKAISEIPI

Legend:
[1] = cited from earlier work
[2] = tested on: Pseudomonas aeruginosa biofilm; assay: Sugar release / solubilization of dehydrated P. aeruginosa biofilm by carbohydrate-active enzymes; conditions: individual enzymes, dehydrated biofilm in PBS, 37° C., 19 hr / overnight

Molecule	maximal attainable concentration in the CF lung [1] [µg/mL]	digestion (solubilization, hydrolysis) of the Pseudomonas aeruginosa biofilm, sugar release [2]
NC[C@H]1O[C@H](O[C@H]2[C@H](O)[C@@H](O[C@H]3O[C@H](CO)[C@@H](O)[C@H](N)[C@H]3O)[C@H](N)C[C@@H]2N)[C@H](N)C[C@@H]1O [tobramycin]	~1000	
egg yolk lysozyme: egg yolk lysozyme (Sigma L4919)		None of these three enzymes showed significant hydrolysis
B1		positive results

Reference: patent US9480729B2, “Enzymes for inhibiting growth of biofilms and degrading same” (C5-6 Technologies, Inc., priority 2012, dated 2016)
